# Data: ChEMBL document CHEMBL1122535, “Mesoionic pyridazine ribonucleosides. A novel biologically active nucleoside metabolite” (1984)
# Tests used:
# [1] = tested on: Escherichia coli; assay: Minimum inhibitory concentration against Escherichia coli (EC) in Davis minimal media under Anaerobic conditions(in vitro); type: functional
# [2] = tested on: Escherichia coli; assay: Minimum inhibitory concentration against Escherichia coli (EC) in Davis minimal media under Aerobic conditions(in vitro); type: functional
# [3] = tested on: Escherichia coli; assay: Minimum inhibitory concentration against Escherichia coli (EC) in Davis minimal media under Anaerobic conditions(in vitro); No indication of toxicity; type: functional, organism-based
# [4] = tested on: Escherichia coli; assay: Minimum inhibitory concentration against Escherichia coli (EC) in Davis minimal media under aerobic conditions(in vitro); No indication of toxicity; type: functional, organism-based
SMILES,MIC [1] [µg/mL],MIC [2] [µg/mL],MIC [3],MIC [4]
N.[O-]c1n[n+]([C@@H]2O[C@H](CO)[C@@H](O)[C@H]2O)ccc1S,100,–,–,–
Nc1cc[n+]([C@@H]2O[C@H](CO)[C@@H](O)[C@H]2O)nc1[O-],100,–,–,–
COc1cc[n+]([C@@H]2O[C@H](CO)[C@@H](O)[C@H]2O)nc1[O-],100,–,–,–
CC(=O)OC[C@H]1O[C@@H]([n+]2ccc(Cl)c([O-])n2)[C@H](O)[C@@H]1O,25,25,–,–
N#Cc1cc[n+]([C@@H]2O[C@H](CO)[C@@H](O)[C@H]2O)nc1[O-],3.1,0.78,–,–
[O-]c1n[n+]([C@@H]2O[C@H](CO)[C@@H](O)[C@H]2O)ccc1Cl,0.2,0.2,–,–
CC(=O)OC[C@H]1O[C@@H]([n+]2ccc(C#N)c([O-])n2)[C@H](O)[C@@H]1O,–,100,–,–
NC(=O)c1cc[n+]([C@@H]2O[C@H](CO)[C@@H](O)[C@H]2O)nc1[O-],–,–,No indication of toxicity,No indication of toxicity
